In patent US20240301409A1, “Chemically Modified Small Activating RNA” (RACTIGEN THERAPEUTICS, priority 2021, published 2024):
Oligonucleotides are written 5' to 3', each unit as a sugar letter and its base; * is a phosphorothioate linkage, no mark a phosphodiester; rarer units and linkages stand in square brackets, end groups in braces. Plain capitals give the bases only. m = 2'-O-methyl; r = 2'-OH (RNA); f = 2'-fluoro

What was measured:
[1] = system: p21 gene; assay: p21 mRNA expression by RT-qPCR in T24 cells; format: cell-based, human; details: 10 nM
Procedure: (§1) Ku-7-LG and T24 cells were transfected with the indicated saRNA at a final concentration of 10 nM for 3 days. After transfection, the RNA was extracted with the Qiagen RNeasy kit. After reverse transcription, the ABI 7500 fast real-time PCR system was used for qPCR amplification. The GAPDH gene was amplified as an internal reference. […] Dashed line indicates duplex Rag1-40 with no chemical modification in comparison, and the values above the line indicate stronger activity. The control was blank transfection without oligonucleotide. dsCon2 is transfected with a double-stranded scramble RNA. The value of the ordinate represents the mean±SD of 2 repeated treatments.
(§2) The control and dsCon2 were blank transfection and scramble dsRNA transfection, respectively. The values in the ordinate represent the mean±SD of 2 repeated treatments.
(§3) Human bladder cancer cells Ku-7-LG (ATCC), J82 (ATCC) and T24 (ATCC) were cultured in McCoy medium (Gibco) comprising 10% calf serum (Sigma-Aldrich) and 1% penicillin/Streptomycin (Gibco). Cells were cultured at 37° C. under 5% CO2. Ku-7-LG, J82 and T24 cells were plated into 12-well plates at 10×10^4 cells per well, transfected with the small RNA at a concentration of 10 nM (unless otherwise specified) for three days, using RNAiMax (Invitrogen, Carlsbad, CA) according to the manufacturer's instructions. Two replicate wells were set for each treatment.
(§4) After transfection, the medium was discarded and to each well 500 μl cell lysate was added and incubated at room temperature for 5 minutes. RNA was extracted with the Qiagen RNeasy kit, and after reverse transcription, qPCR analysis was performed on the ABI 7500 Fast Real-time PCR system (Applied Biosystems). Each sample was amplified in 3 replicate wells.
(§5) The PCR reaction conditions are: 95° C. for 30 seconds, 95° C. for 5 seconds, 60° C. for 30 seconds, and 40 cycles of amplification. The GAPDH gene was amplified as an internal reference at the same time. p21 was amplified with the p21F1/R1 primer pair, and the specific sequences of the amplification primers are shown in Table 1.
(§6) In order to calculate the expression value (Erel) of p21 (target gene) of a saRNA transfection sample relative to the control treatment, Formula 1 is used to input the Ct values of the target gene and the internal reference gene for calculation.
(§7) wherein, CtTm is the Ct value of the target gene from the control treatment sample; CtTs is the Ct value of the target gene from the saRNA treated sample; CtRm is the Ct value of the internal reference gene from the control treatment sample; and CtRs is the Ct value of the internal reference gene from the saRNA treated sample.
(§8) The main purpose of introducing chemical modifications to regulatory oligonucleotides of a gene is to improve their pharmaceutical properties, including enhancing in vivo stability and mitigating off-target effects (e.g., sequence-dependent targeting of unrelated genes, sequence-dependent or independent immune stimulation), while maintaining their gene regulatory capacity (gene knockdown or activation). To assess the effect of chemical modification on the RNAa activity of saRNA on the p21 gene, 10 nM unmodified (Rag1-40) and modified (Rag1-40-1 to Rag1-40-34) duplexes were transfected into Ku-7-LG and T24 cells, respectively. After 72 hours, the mRNA expression level of p21 was assessed by RT-qPCR. All duplexes induced p21 mRNA expression in all […] at least double that of the control.
(§9) In order to further evaluate the expression level of p21 mRNA after the different durations of treatment by the chemically modified saRNA duplexes, two saRNAs (RAG1-40-31 and RAG1-40-53) were randomly selected from the above chemically modified saRNA duplexes for detection. RAG1-40-31 and RAG1-40-53 were transfected into Ku-7-LG and T24 cells at a final concentration of 10 nM, for 1, 2, 3, 4, 7 and 9 days, respectively. Each treatment was set up in duplicate. […]

[2] = system: Ku-7-LG cells; assay: Cell cycle detection by flow cytometry in Ku-7-LG cells; format: cell-based, human; details: 48 hours
Procedure: RAG1-40-31 and RAG1-40-53 were transfected into Ku-7-LG cells at the final concentrations of 0.1, 1, 10 and 50 nM, and the transfection duration was 48 hours. Two replicate wells were used for each treatment. After transfection, the cell cycle was analyzed by flow cytometry, and the collected data were analyzed by MotFit software.
After transfection, the supernatant was discarded to collect cells. To each well 500 μL PBS was added for one wash and then discarded. To each well 100 μL trypsin was further added. 900 μL medium was added to stop digestion before transferring to a 1.5 mL centrifuge tube. All the cells were collected through centrifugation (400 rcf, 5 min) and counted (2×10^5 cells/200 μL PBS). Cold 70% absolute ethanol was added before incubation overnight at 4° C. After washing twice with PBS, 200 μL Krishan buffer was added before incubation at 4° C. for 1 hour. After washing twice with PBS, the supernatant was discarded and 200 μL PBS was added for cell re-suspension, then the cells were transferred to a 96-well plate and analyzed by flow cytometer. The collected data were analyzed with MotFit software.
In order to study the mechanism of cellular proliferation suppression, change in cell cycle was analyzed using flow cytometry in this example. Randomly selected saRNAs RAG1-40-31 and RAG1-40-53 were transfected into Ku-7-LG cells at final concentrations of 0.1, 1, 10 and 50 nM, respectively, for 48 hours. Each treatment was set in duplicate. Cell cycle was detected and analyzed as described in the general protocol above.

[3] = system: p21 gene; assay: p21 mRNA expression by RT-qPCR in Ku-7-LG cells; format: cell-based, human; details: 10 nM
Procedure: as §1, §2, §3, §4, §5, §6, §7, §8, §9

[4] = molecular target: T1, RNase A (Bos taurus, UniProt P61823); assay: saRNA stability analysis in the presence of RNase A (agarose gel); details: incubation 0 to 96 hours
T1 sequence (P61823 27-150): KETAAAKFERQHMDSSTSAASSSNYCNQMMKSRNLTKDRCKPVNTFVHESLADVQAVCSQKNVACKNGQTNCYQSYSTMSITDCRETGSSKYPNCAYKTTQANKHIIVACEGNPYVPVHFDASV

[5] = system: Rag1-40 target sequence in the 3′ UTR of firefly luciferase, COS-1 cells; assay: Analysis of off-target effects (pOff-Target dual luciferase reporter in COS-1 cells); details: lysed 48 hours after transfection, luciferase activity
Procedure: A 26 bp fragment comprising the target site of Rag1-40 was cloned in the antisense orientation into the 3′ UTR region of the firefly luciferase gene in a pmirGLO dual luciferase vector. Vector plasmids were co-transfected with the indicated saRNAs into COS-1 cells. Cells were lysed 48 hours after transfection, and the resulting lysates were assessed for luciferase activity. Data represent mean±SD of at least two independent experiments. Dashed line represents comparisons to blank control (top dashed line) and Rag1-40 (bottom dashed line). Values close to the top dashed line indicate no off-target effect.
A 26 bp fragment comprising the Rag1-40 target sequence was cloned in the antisense orientation into a multiple cloning site (MCS) of the 3′ untranslated region of firefly luciferase of the pmirGLO dual luciferase vector (Promega, Fitchburg, WI), to obtain pOff-Target plasmid. Following E. coli transformation and overnight incubation, plasmids for each construct were prepared by standard method. Each plasmid was transfected into COS-1 monkey kidney epithelial cells using Lipofectamine 3000 (Invitrogen, Carlsbad, CA). Subsequently, saRNA was transfected using RNAiMAX. After 24 hours of incubation, COS-1 cells were lysed with 1× lysis buffer, and luciferase activity was measured using dual luciferase reporter gene assay system (Promega, WI, USA) following manufacturer's instructions.
To assess the off-target effects of unmodified and modified saRNAs, a sequence complementary to the sense oligonucleotide strand of Rag1-40 was cloned into the 3′UTR region of the luciferase gene in a pmirGLO dual luciferase vector. The vector plasmid was co-transfected with the saRNA into COS-1 cells. Cells were lysed 48 hours after transfection and the resulting lysates were assessed for luciferase activity.

Substance: RAG1-40-53: saRNA duplex: sense mCmCAACfUCAfUfUCfUCCAAG*mU*mC (SEQ ID NO 24); antisense fUAfCfUfUGGAGAAfUGAGfUfUGG*fC*fA (SEQ ID NO 25) (sense CCAACUCAUUCUCCAAGUC; antisense UACUUGGAGAAUGAGUUGGCA; 2'-F, 2'-OMe, phosphorothioate modifications; modified_base (1)..(19) (1,2,18,19)=2′-O-methyl(2′-OMe); modified_base (6)..(12) (6,9,10,12)=2′-fluoro; modified_base (17)..(19) (17,18,19)=phosphorothioate (PS) backbone modification; modified_base (1)..(21) (1,3,4,5,12,16,17,20,21)=2′-fluoro; modified_base (20)..(21) (20,21)=phosphorothioate (PS) backbone modification)
- increase of expression level of p21 mRNA compared with the control group ([1]; 1 day): 2.2 fold
- increase of expression level of p21 mRNA compared with the control group ([1]; 2 days): 3.5 fold
- increase of expression level of p21 mRNA compared with the control group ([1]; 3 days): 7.8 fold
- increase of expression level of p21 mRNA compared with the control group ([1]; 4 days): 4.5 fold
- increase of expression level of p21 mRNA compared with the control group ([1]; 7 days): 1.2 fold
- increase of expression level of p21 mRNA compared with the control group ([1]; 9 days): 1.1 fold
- percentage of cells in DNA anaphase/mitosis (G2/M) ([2]; 0.1 nM): 7%
- percentage of cells in DNA replication phase (S phase) ([2]; 0.1 nM): 36%
- percentage of cells in prophase of DNA synthesis (G0/G1) ([2]; 0.1 nM): 57%
- percentage of cells in DNA anaphase/mitosis (G2/M) ([2]; 1 nM): 10%
- percentage of cells in DNA replication phase (S phase) ([2]; 1 nM): 24%
- percentage of cells in prophase of DNA synthesis (G0/G1) ([2]; 1 nM): 66%
- percentage of cells in DNA anaphase/mitosis (G2/M) ([2]; 10 nM): 9%
- percentage of cells in DNA replication phase (S phase) ([2]; 10 nM): 12%
- percentage of cells in prophase of DNA synthesis (G0/G1) ([2]; 10 nM): 79%
- percentage of cells in DNA anaphase/mitosis (G2/M) ([2]; 50 nM): 8%
- percentage of cells in DNA replication phase (S phase) ([2]; 50 nM): 16%
- percentage of cells in prophase of DNA synthesis (G0/G1) ([2]; 50 nM): 76%
- increase of expression level of p21 mRNA compared with the control group ([3]; 1 day): 1.4 fold
- increase of expression level of p21 mRNA compared with the control group ([3]; 2 days): 13.0 fold
- increase of expression level of p21 mRNA compared with the control group ([3]; 3 days): 9.1 fold
- increase of expression level of p21 mRNA compared with the control group ([3]; 4 days): 4.5 fold
- increase of expression level of p21 mRNA compared with the control group ([3]; 7 days): 3.2 fold
- increase of expression level of p21 mRNA compared with the control group ([3]; 9 days): 4.1 fold

Substance: Rag1-40-14: saRNA duplex: sense fCfCAACUCAUUCUCCAAGfUfC (SEQ ID NO 14); antisense fU*A*fCfUfUGGAGAAfUGAGfUfUGG*fC*A (SEQ ID NO 11) (sense CCAACUCAUUCUCCAAGUC; antisense UACUUGGAGAAUGAGUUGGCA; 2'-F modifications, phosphorothioates; modified_base (1)..(19) (1,2,18,19)=2′-fluoro; modified_base (1)..(21) (1,2,3,19,20,21)=phosphorothioate (PS) backbone modification; modified_base (1)..(20) (1,3,4,5,12,16,17,20)=2′-fluoro)
- degradation of duplex at 96 hours [4]: little or no signs of degradation
- off-target effect compared to unmodified Rag1-40, in words [5]: mitigated or similar off-target effects

Substance: Rag1-40-19: saRNA duplex: sense mCmCAACUCAUUCUCCAAG*U*C (SEQ ID NO 15); antisense fUmAfCfUfUmGmGmAmGmAmAfUmGmAmGfUfUmGmGfCmA (SEQ ID NO 8) (sense mCmCrArArCrUrCrArUrUrCrUrCrCrArArG*rU*rC)
- degradation of duplex at 96 hours [4]: little or no signs of degradation
- off-target effect compared to unmodified Rag1-40, in words [5]: mitigated or similar off-target effects

Substance: Rag1-40-1: saRNA duplex: sense mCmCAACUCAUUCUCCAAGmUmC (SEQ ID NO 5); antisense fUAfCfUfUGGAGAAfUGAGfUfUGGfCA (SEQ ID NO 6) (sense CCAACUCAUUCUCCAAGUC; antisense UACUUGGAGAAUGAGUUGGCA; 2'-OMe and 2'-F modifications; modified_base (1)..(19) (1,2,18,19)=2′-O-methyl(2′-OMe); modified_base (1)..(20) (1,3,4,5,12,16,17,20)=2′-fluoro)
- degradation of duplex at 96 hours [4]: little or no signs of degradation
- off-target effect compared to unmodified Rag1-40, in words [5]: completely inhibited
